# Experiment: Log of liquid dish neat product liquid-air partition coefficient
# Assay type: physicochemical
# Conditions: not given
row,Structure (SMILES),Comment Code: Log of liquid dish neat product liquid-air partition coefficient
1,CC(C)(O)CCC1CCCCC1 [Material 496],K (Log of liquid dish neat product liquid-air partition coefficient greater than or equal to 7)
2,O=COCCc1ccccc1 [Material 956],K (Log of liquid dish neat product liquid-air partition coefficient greater than or equal to 7)
3,C=CC(C)(CCC=C(C)C)OC(C)=O (stereo not shown) [Material 154],K (Log of liquid dish neat product liquid-air partition coefficient greater than or equal to 7)
4,C=CCCC(=O)C1=CCCC2(CCCC2)C1 [Material 1038],K (Log of liquid dish neat product liquid-air partition coefficient greater than or equal to 7)
5,CCC(=O)N(CC)c1cccc(C)c1 [Material 755],K (Log of liquid dish neat product liquid-air partition coefficient greater than or equal to 7)
6,CC1OC(C)C2Cc3ccccc3C2O1 (stereo not shown) [Material 141],K (Log of liquid dish neat product liquid-air partition coefficient greater than or equal to 7)
7,CCOc1cc(COC)ccc1O [Material 115],K (Log of liquid dish neat product liquid-air partition coefficient greater than or equal to 7)
8,C=C1CCC2OC2(C)CCC2C1CC2(C)C (stereo not shown) [Material 1148],K (Log of liquid dish neat product liquid-air partition coefficient greater than or equal to 7)
9,COc1ccc(CC(C)=O)cc1 [Material 983],K (Log of liquid dish neat product liquid-air partition coefficient greater than or equal to 7)
10,CC/C(=C/CC1CC=C(C)C1(C)C)CO (stereo not shown) [Material 1024],K (Log of liquid dish neat product liquid-air partition coefficient greater than or equal to 7)
11,CCC(C)c1nccnc1OC (stereo not shown) [Material 845],K (Log of liquid dish neat product liquid-air partition coefficient greater than or equal to 7)
12,COc1ccc(COC=O)cc1 [Material 665],K (Log of liquid dish neat product liquid-air partition coefficient greater than or equal to 7)
13,CC=Cc1ccc(O)c(OC)c1 [Material 214],K (Log of liquid dish neat product liquid-air partition coefficient greater than or equal to 7)
14,CC1=CCCC2(C)CCC(C(C)(C)O)CC12 (stereo not shown) [Material 775],K (Log of liquid dish neat product liquid-air partition coefficient greater than or equal to 7)
15,C=CCOC(=O)COC1CCCCC1 [Material 918],K (Log of liquid dish neat product liquid-air partition coefficient greater than or equal to 7)

# Same assay, conditions: Comment Code letters K and/or L
row,Structure (SMILES),Log of liquid dish neat product liquid-air partition coefficient (Comment Code K/L)
1,C=C1CCC2OC2(C)CCC2C1CC2(C)C (stereo not shown) [Material 1148],K (Log of liquid dish neat product liquid-air partition coefficient greater than or equal to 7)

# Same assay, conditions: code letter within the Comment Code cell
row,Structure (SMILES),Log of liquid dish neat product liquid-air partition coefficient (Comment Code K/L)
1,CC1=CCC(C(C)CC=O)CC1 (stereo not shown) [Material 159],K (Log of liquid dish neat product liquid-air partition coefficient greater than or equal to 7)
2,C=CC(C)(CCC=C(C)C)OC(=O)C(C)C (stereo not shown) [Material 149],K (Log of liquid dish neat product liquid-air partition coefficient greater than or equal to 7)
3,O=C1CCCCCCCCCCCCCC1 [Material 480],K (Log of liquid dish neat product liquid-air partition coefficient greater than or equal to 7)
4,CCCCCCCCCCCCCC(=O)OCC [Material 388],K (Log of liquid dish neat product liquid-air partition coefficient greater than or equal to 7)
5,CCCCCC(=O)OCc1ccco1 [Material 338],K (Log of liquid dish neat product liquid-air partition coefficient greater than or equal to 7)
6,CC1OC(C)C2Cc3ccccc3C2O1 (stereo not shown) [Material 141],K (Log of liquid dish neat product liquid-air partition coefficient greater than or equal to 7)
7,C=CCCC(=O)/C=C/C1C(C)=CCCC1(C)C (stereo not shown) [Material 559],K (Log of liquid dish neat product liquid-air partition coefficient greater than or equal to 7)
8,C=CCc1ccc(OC)c(OC)c1 [Material 110],K (Log of liquid dish neat product liquid-air partition coefficient greater than or equal to 7)
9,CCC=CCC1C(=O)CCC1CC(=O)OC (stereo not shown) [Material 112],K (Log of liquid dish neat product liquid-air partition coefficient greater than or equal to 7)
10,CCCCCCCCCC/C=C\C#N [Material 11],K (Log of liquid dish neat product liquid-air partition coefficient greater than or equal to 7)
11,CCOC(C)OC1CCCCCCCCCCC1 (stereo not shown) [Material 363],K (Log of liquid dish neat product liquid-air partition coefficient greater than or equal to 7)

# Same assay, conditions: code letters K/L of the Comment Code
row,Structure (SMILES),Log of liquid dish neat product liquid-air partition coefficient (Comment Code)
1,C=CCCC(=O)C1=CCCC2(CCCC2)C1 [Material 1038],K (Log of liquid dish neat product liquid-air partition coefficient greater than or equal to 7)
2,CC(=CCC1CC=C(C)C1(C)C)CO (stereo not shown) [Material 1025],K (Log of liquid dish neat product liquid-air partition coefficient greater than or equal to 7)
3,C=CCOC(=O)CCC1CCCCC1 [Material 746],K (Log of liquid dish neat product liquid-air partition coefficient greater than or equal to 7)
4,C=CCCCCCCCCCO [Material 870],K (Log of liquid dish neat product liquid-air partition coefficient greater than or equal to 7)
5,CCCC(O)Cc1ccccc1 (stereo not shown) [Material 730],K (Log of liquid dish neat product liquid-air partition coefficient greater than or equal to 7)
6,CC(C)c1ccc2ncccc2c1 [Material 778],K (Log of liquid dish neat product liquid-air partition coefficient greater than or equal to 7)
7,CCC(=O)C=CC1C(C)=CCCC1(C)C (stereo not shown) [Material 700],K (Log of liquid dish neat product liquid-air partition coefficient greater than or equal to 7)
8,CC/C(=C/CC1CC=C(C)C1(C)C)CO (stereo not shown) [Material 1024],K (Log of liquid dish neat product liquid-air partition coefficient greater than or equal to 7)
9,CCCCCCCCCC(=O)O [Material 582],K (Log of liquid dish neat product liquid-air partition coefficient greater than or equal to 7)
10,O=C(Oc1ccccc1)c1ccccc1 [Material 965],K (Log of liquid dish neat product liquid-air partition coefficient greater than or equal to 7)
11,CC(C)=CCCC(C)(O)C1CC=C(C)CC1 (stereo not shown) [Material 718],K (Log of liquid dish neat product liquid-air partition coefficient greater than or equal to 7)
12,CCCC(O)CCC1C(C)CCCC1(C)C (stereo not shown) [Material 1063],K (Log of liquid dish neat product liquid-air partition coefficient greater than or equal to 7)
13,CC1=CCCC2(C)CCC(C(C)(C)O)CC12 (stereo not shown) [Material 775],K (Log of liquid dish neat product liquid-air partition coefficient greater than or equal to 7)

# — patent US20170333591A9, “ABSORBENT ARTICLE COMPRISING MALODOR REDUCTION COMPOSITIONS” (The Procter & Gamble Company, priority 2014, published 2017)
